From PMC9926489, “Chemical Optimization of Selective Pseudomonas aeruginosa LasB Elastase Inhibitors and Their Impact on LasB-Mediated Activation of IL-1β in Cellular and Animal Infection Models” (ACS Infectious Diseases, 2023) come the findings set out here.

For test [1], the system named is IL-1β activation. The test can be described thus: IL-1β activation in P. aeruginosa-infected THP-1 macrophages (HEK IL-1R-lux reporter assay). In kind it is cell-based, human. The conditions noted are these: Homo sapiens; PAO1-infected THP-1 macrophages, IL-1 reporter assay; read-out: EC50, decrease in IL-1β activation. As for the experimental part: Further to showing in vitro inhibition of LasB-mediated pro-IL-1β proteolysis, experiments were performed to determine the effect of compounds 12 and 16 on IL-1β activation and functionality in human macrophage cell cultures infected with P. aeruginosa PAO1, or an isogenic lasB deletion mutant thereof (ΔlasB). In these experiments, the levels of LasB activity in culture supernatants were measured via hydrolysis of the Sub115 fluorescent peptide, while the effect of LasB activity on IL-1β activation (functionality) was measured using a luciferase reporter cell line sensitive to IL-1β induction (Figure 3).
Human THP-1 macrophages were cultured by conventional methods then, pre-infection, culture media were replaced by RPMI lacking phenol red and antibiotics. […] After 2 h post-infection, 50 μL aliquots of supernatant were removed and used to quantitate both LasB activity and IL-1β functionality. To determine LasB activity, 50 μL of supernatant was added to Sub115 IL-1β peptide and hydrolysis of Sub115 was monitored spectrophotometrically with excitation at 355 nm and emission at 450 nm, as described above. Results were expressed as relative fluorescence units (RFU).
To determine IL-1β functionality, generation of an IL-1 signal was quantified by adding 50 μL of supernatant to HEK IL-1R-lux reporter cells cultured in RPMI supplemented with 5% heat-inactivated FBS, 200 μg/mL penicillin/streptomycin, 200 μg/mL hygromycin, 100 μg/mL zeomycin, and 0.5 μg/mL puromycin. No bacteria survived in this antibiotic condition; 18 h post-treatment, IL-1β-dependent luciferase induction was assayed by luminescence measured with D-luciferin substrate (Steady-Luc, Biotium) on a multimode reader (PerkinElmer) and expressed as relative luminescence units (RU), as previously described.[16]
In the first variation, experimental infections were performed with P. aeruginosa PAO1 and ΔlasB bacteria incubated with varying quantities of inhibitor at final concentrations ranging from 0.5 to 8 μM. […]
Background: A reporter such as luciferase makes a cellular process visible.

Test [2] deals with T1, LasB S241G (Pseudomonas aeruginosa, UniProt P14756, S241G).
T1 construct: endogenous in cells; host or cells: P. aeruginosa clinical CF isolate, culture supernatant
In words: LasB variant inhibition, culture supernatant: S241G. In kind it is biochemical, P. aeruginosa. The text has this:
(§1) Compounds 12 and 16 were discovered as a result of optimizing potency against the LasB protein expressed from the wild-type (WT) reference strain P. aeruginosa PAO1. To understand the relative prevalence of the WT LasB protein versus other variants in clinical respiratory P. aeruginosa strains, the full-length lasB gene was amplified by PCR from 255 clinical isolates (obtained from CF sputum samples). […] Most changes were identified in the mature peptide, however some occurred in the propeptide domain, which could affect LasB processing (marked in italics in Table 4).
(§2) LasB inhibition assays were performed using purified LasB enzyme (1 ng/well) for compound screening or using culture supernatants (prepared as described in the ECR assay) for testing LasB variants. Hydrolysis of the fluorogenic peptide substrate 2-aminobenzoyl-Ala-Gly-Leu-Ala-4-nitrobenzylamide (Abz-AGLA-Nba; Peptide International) in 50 mM Tris-HCl (pH 7.4), supplemented with 2.5 mM CaCl2 was followed using an Envision microplate reader (PerkinElmer) at 315 nm excitation and 430 nm emission. […] IC50 values were determined from Hill plots using Dotmatics Studies ELN software. For the mechanism of inhibition studies, hydrolysis rates were measured in the presence of variable concentrations of substrate and inhibitor, and the inhibition constant (Ki) was determined using Dixon plot analysis.[31]

Test [3] has as its target T2, purified LasB (Pseudomonas aeruginosa, UniProt P14756).
T2 construct: The mature LasB protein is a 33 kDa metalloprotease, which is secreted from P. aeruginosa; host or cells: P. aeruginosa PAO1 (native secretion, culture supernatant)
The test can be described thus: Inhibition of LasB-mediated proteolysis of human serum IgG (SDS-PAGE). It counts as biochemical, P. aeruginosa. Conditions: for inhibition of generation of 37 kDa IgG degradation product by LasB: at 10 μM inhibitor. As for the experimental part:
To confirm if compounds 12 and 16 were able to inhibit this activity, human serum IgG was incubated with purified LasB in the presence of varying concentrations of inhibitors and the products analyzed by SDS-PAGE.
This protocol was adapted from Cathcart et al.[25] Briefly, 10 μg of IgG from human serum (Sigma) were incubated with 100 ng purified LasB in assay buffer (50 mM Tris-HCl pH 7.4, 2.5 mM CaCl2) for 4 h at 37 °C, with or without variable concentrations of inhibitor. Samples were then denatured and analyzed by 4–15% gradient SDS polyacrylamide gel electrophoresis (SDS-PAGE) and the gel stained using Coomassie blue. The IgG subunits are visualized as two bands at 28 kDa (light chain) and 54 kDa (heavy chain). Proteolysis by LasB results in the generation of a fragment of the heavy chain detected of approximately 37 kDa. Bands were quantified using ImageJ software, and IC50 values were determined using Prism software (GraphPad).

Test [4] addresses T3, LasB WT (PAO1 reference) (Pseudomonas aeruginosa, UniProt P14756).
T3 construct: endogenous in cells; host or cells: P. aeruginosa strains of WT lasB genotype, culture supernatant
In words: LasB variant inhibition, Abz-AGLA-Nba assay with culture supernatant: WT. In kind it is biochemical, P. aeruginosa.
Description: as §1, §2

pEC50, pIC50: −log10 of the molar value.

T2 sequence (P14756 198-498): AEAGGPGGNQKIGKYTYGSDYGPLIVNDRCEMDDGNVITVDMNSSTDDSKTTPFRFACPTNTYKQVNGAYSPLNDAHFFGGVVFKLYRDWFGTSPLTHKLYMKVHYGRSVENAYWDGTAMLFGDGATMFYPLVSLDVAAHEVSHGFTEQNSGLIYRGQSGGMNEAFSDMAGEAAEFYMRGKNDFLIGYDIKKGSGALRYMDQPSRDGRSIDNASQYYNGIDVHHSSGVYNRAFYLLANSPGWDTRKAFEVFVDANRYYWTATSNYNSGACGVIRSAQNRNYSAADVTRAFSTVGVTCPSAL
T1 sequence (P14756 198-498 S241G): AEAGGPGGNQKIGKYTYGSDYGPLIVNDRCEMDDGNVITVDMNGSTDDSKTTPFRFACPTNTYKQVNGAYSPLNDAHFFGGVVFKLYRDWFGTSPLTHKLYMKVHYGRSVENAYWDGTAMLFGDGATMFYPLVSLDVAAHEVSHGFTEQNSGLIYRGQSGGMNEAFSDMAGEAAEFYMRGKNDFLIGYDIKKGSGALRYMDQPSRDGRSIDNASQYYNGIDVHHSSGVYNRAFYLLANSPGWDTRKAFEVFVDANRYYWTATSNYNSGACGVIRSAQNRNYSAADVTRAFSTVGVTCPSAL
T3 sequence (P14756 198-498): as the sequence (P14756 198-498) above

Consider `COc1cc2sc(CNC(=O)C3(CC(=O)O)Cc4cc(F)c(F)cc4C3)nc2cc1OCCC[N+](C)(CCO)CCO` [Compound 16], for which the pEC50 in test [1] was roughly 6.30. The results for the pIC50 in test [2], in test [3] and in test [4] were 6.69, 5.89 and 6.75, respectively. Further, the “inhibition of generation of 37 kDa IgG degradation product by LasB” value in test [3] is listed as “complete inhibition”.

`COc1cc2sc(CNC(=O)C3(CC(=O)O)Cc4ccccc4C3)nc2cc1OCCC[N+](C)(C)C` [Compound 12]: the pEC50 in test [1] was roughly 6.30. Further, the pIC50 in test [2] was 6.66; in test [3] it was 5.59; in test [4], 6.65. In addition, the “inhibition of generation of 37 kDa IgG degradation product by LasB” value in test [3] is reported as “complete inhibition”.

The pEC50 is the negative decadic logarithm of the EC50, by convention in mol/L. The pIC50 is the negative decadic logarithm of the IC50, by convention in mol/L. A low value points to a large IC50.
